ChEMBL document CHEMBL4251603, “Structure-activity studies on N-Substituted tranylcypromine derivatives lead to selective inhibitors of lysine specific demethylase 1 (LSD1) and potent inducers of leukemic cell differentiation” (Eur J Med Chem, 2018)
Active and inactive are the calls of the source. The rule behind the calls is not given here.

How the values were obtained:
[1] = molecular target: Lysine-specific histone demethylase 1A (Homo sapiens, UniProt O60341)
SJRH30 [2] = assay: Induction of cell death in human Rh30 cells at 50 to 100 nM after 72 hrs by propidium iodide/Hoechst 33342 staining based fluorescence microscopic analysis; assay type: functional
SJRH30 [3] = assay: Potentiation of JNJ-26481585-induced cell death in human Rh30 cells after 72 hrs by propidium iodide/Hoechst 33342 staining based fluorescence microscopic analysis; assay type: functional
[4] = molecular target: T1, Amine oxidase [flavin-containing] A (Homo sapiens, UniProt P21397)
T1 sequence (P21397 whole entry): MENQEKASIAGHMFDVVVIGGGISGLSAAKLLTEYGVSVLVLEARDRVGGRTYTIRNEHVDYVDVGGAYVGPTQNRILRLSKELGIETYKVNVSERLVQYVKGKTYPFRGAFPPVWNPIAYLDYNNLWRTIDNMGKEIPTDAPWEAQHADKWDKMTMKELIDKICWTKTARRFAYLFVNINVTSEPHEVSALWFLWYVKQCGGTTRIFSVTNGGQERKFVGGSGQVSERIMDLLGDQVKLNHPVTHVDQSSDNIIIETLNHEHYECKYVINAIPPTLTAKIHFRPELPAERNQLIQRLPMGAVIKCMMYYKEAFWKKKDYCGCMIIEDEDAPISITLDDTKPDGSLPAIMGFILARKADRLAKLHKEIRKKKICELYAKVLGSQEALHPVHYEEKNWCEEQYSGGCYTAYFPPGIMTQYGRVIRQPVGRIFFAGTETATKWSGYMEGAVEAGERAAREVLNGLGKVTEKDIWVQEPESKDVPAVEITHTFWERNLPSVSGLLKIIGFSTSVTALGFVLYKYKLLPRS

MAO-B = molecular target: T2, MAO-B (Homo sapiens, UniProt P27338); assay: (§1) Inhibition of MAO-B (unknown origin) at 250 uM using beetle luciferin derived luminogenic substrate preincubated for 15 mins followed by substrate addition measured after 60 mins by MAO-Glo assay relative to control; conditions: MAO-B enzyme (unknown origin), probe beetle luciferin derived luminogenic substrate
T2 sequence (P27338 whole entry): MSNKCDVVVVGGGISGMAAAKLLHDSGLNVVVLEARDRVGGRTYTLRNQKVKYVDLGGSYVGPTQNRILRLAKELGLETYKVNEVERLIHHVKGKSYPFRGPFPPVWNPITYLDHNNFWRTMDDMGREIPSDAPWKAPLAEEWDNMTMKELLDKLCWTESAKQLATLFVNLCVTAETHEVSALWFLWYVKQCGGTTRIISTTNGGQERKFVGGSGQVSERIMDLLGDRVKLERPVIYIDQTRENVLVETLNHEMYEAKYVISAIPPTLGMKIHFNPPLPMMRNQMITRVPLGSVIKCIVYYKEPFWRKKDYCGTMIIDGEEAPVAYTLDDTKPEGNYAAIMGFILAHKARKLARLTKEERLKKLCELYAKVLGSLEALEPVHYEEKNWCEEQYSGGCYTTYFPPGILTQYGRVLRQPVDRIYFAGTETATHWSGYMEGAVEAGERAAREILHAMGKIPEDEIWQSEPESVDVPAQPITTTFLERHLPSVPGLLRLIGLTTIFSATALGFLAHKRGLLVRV

THP-1 = assay: cells; conditions: Homo sapiens, THP-1, 5 min, read-out: INH
[5] = molecular target: T3, Amine oxidase [flavin-containing] B (Homo sapiens, UniProt P27338); assay: as §1; conditions: 1 h, 250 µM
T3 sequence (P27338 whole entry): T2 sequence (P27338 whole entry)

With `O=C(O)c1ccc(CN2CCC(CN[C@H]3C[C@@H]3c3ccccc3)CC2)cc1` the IC50 [1] was 1.7 µM, the Activity (SJRH30 [2]) was “Active” and the Activity (SJRH30 [3]) was “Active”.

`Cc1ccc(-c2ncc(OCC3CCNC3)cc2-c2ccc(C#N)cc2)cc1` (centres undefined) showed an IC50 [1] of 0.09 µM.

In the case of `NS(=O)(=O)c1ccc(CN[C@H]2C[C@@H]2c2ccccc2)cc1` (relative stereo), the Activity (SJRH30 [2]) is reported as “Active”, the Activity (SJRH30 [3]) is reported as “Active” and the IC50 [4] is reported as 21.6 µM. For the same molecule, the inhibition at 1 h, 250 µM (MAO-B) was 42% and the inhibition at 0.05 µM (THP-1) was 80%.

In the case of `CNS(=O)(=O)c1ccc(CN[C@H]2C[C@@H]2c2ccccc2)cc1` (relative stereo), the Activity (SJRH30 [2]) is reported as “Active”, the Activity (SJRH30 [3]) is reported as “Active” and the IC50 [4] is reported as 17.1 µM. The “inhibition (INH)” value [5] was “Not Active” and the inhibition at 0.05 µM (THP-1) was 80%.
